System: adjuvant induced arthritis
Test: Adjuvant arthritis model in Lewis rats
Format: in vivo, rat

Compound: CNC(=O)[C@H]1O[C@@H](n2cnc3c(NCc4cccc(I)c4)nc(Cl)nc32)[C@H](O)[C@@H]1O [Cl-IB-MECA, 2-chloro-N^6-(3-iodobenzyl)-adenosine-5′-N-methyl-uronamide]
- appearance of paws (10 μg/kg a day PO, untreated rat paws extremely swollen and red): normal appearing paws
- improvement of arthritis score, 10 μg a day compared with 100 μg/kg a day (PO, from day 7 after disease induction, FIG. 4): significantly more effective

From US7141553B2, “A3AR agonists for the treatment of inflammatory arthritis” (Can-Fite Biopharma Ltd. Israel, priority 2002, dated 2006)
